Results published in patent US11186575B2, “Treatment of helicobacter pylori infections” (Albert Einstein College of Medicine, Inc., priority 2012, dated 2021).
≈ marks a conversion by molar mass, not a printed value. Like-named read-outs stand apart in the source and are kept apart here.

Legend:
H. pylori MTAN [1] = biological target: T1, H. pylori MTAN (Helicobacter pylori, UniProt Q9ZMY2); assay: Ki determination: inhibition of recombinant HpMTAN, xanthine oxidase coupled assay, 5′-methylthioadenosine as substrate; assay type: biochemical
T1 construct: His6 (N); made in house; host or cells: E. coli BL21 (DE3)
T1 sequence (Q9ZMY2 1-230): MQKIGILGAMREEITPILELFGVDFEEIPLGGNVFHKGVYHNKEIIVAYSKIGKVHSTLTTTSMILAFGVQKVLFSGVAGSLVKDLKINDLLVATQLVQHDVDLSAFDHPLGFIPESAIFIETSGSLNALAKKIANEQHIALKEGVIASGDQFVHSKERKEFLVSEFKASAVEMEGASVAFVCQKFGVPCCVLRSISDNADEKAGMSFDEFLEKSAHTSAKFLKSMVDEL
Protocol: The purification procedure of HpMTAN was described previously^10. Briefly, BL21 (DE3) cells harboring a plasmid encoding HpMTAN with an N-terminal His6-tag were grown to an optical density of 0.7 measured at 595 nm and IPTG was introduced to a final concentration of 0.5 mM. After another 15 h at 22° C., cells were collected by centrifugation. The pellet was suspended and later disrupted by pressure cell and sonication. The soluble portion was applied to a Ni-NTA column and HpMTAN was eluted with an imidazole concentration gradient of 200 to 500 mM. The protein was desalted using a Superdex G15 gel-filtration column then equilibrated and concentrated in 10 mM Hepes, 30 mM KCl, pH 7.6. The purity was confirmed by SDS-PAGE.
Kinetics of HpMTAN were determined using a direct assay involving absorbance decrease at 274 nm continuously as a consequence of formation of free adenine from 5′-methylthioadenosine. The Ki and Ki* values of BuT-DADMe-ImmA (30) were determined using coupled assays, in which xanthine oxidase was used as the coupling enzyme and absorbance increase was followed at 292 nm as the product adenine is converted to 2,8-dihydroxyadenine. Both assays have been previously described
BuT-DADMe-ImmA (30) was previously characterized as a transition state analogue inhibitor of EcMTAN (FIG. 1C)^8. Here, inhibition assays were performed using BuT-DADMe-ImmA against recombinant HpMTAN with 5′-methylthioadenosine as substrate. Purified HpMTAN uses both 5′-methylthioadenosine and 6-amino-6-deoxyfutalosine as facile substrates. […] The low Kd value supports the proposal that BuT-DADMe-ImmA is a transition state analogue inhibitor for HpMTAN. […] The nitrogen of the hydroxypyrrolidine moiety has a pKa value of 9, and thus mimics the positive charge of a ribocation at the transition state. The methylene bridge extends the distance between the sugar and the purine base leaving group, as this distance is near 3 Å at the transition state. The 9-deazaadenine alters conjugation in the purine ring, causing an elevated pKa and protonation of N7, resembling the N7-protonated adenine leaving group at the transition state.

H. pylori = H. pylori growth on tryptic soy agar with 5% horse blood (MIC); assay type: cell-based, Helicobacter pylori; conditions: Helicobacter pylori, read-out: Inhibition of H. pylori growth MIC90
Protocol: H. pylori were grown for 72 hours under microaerophilic condition (5% O2, 10% CO2 and 85% N2) at 37° C. on tryptic soy agar with 5% horse blood. To determine the MIC values, the test substance was added to the gel solution right before pouring. To compare the zones of inhibition, specific antibiotics were added to the center of disc after spreading H. pylori, and then H. pylori was allowed to grow for 72 hours under microaerophilic condition at 37° C.
The effects of BuT-DADMe-ImmA (30) were tested on H. pylori growing on 5% horse blood agar. At 6 ng/ml, slight growth was detected and at 8 ng/ml, no growth was detected, therefore the MIC90 value for inhibition of H. pylori growth is <8 ng/ml (FIG. 3A).

H. pylori MTAN [2] = biological target: T1, H. pylori MTAN; conditions: Table 3, cited from earlier work
[3] = Table 4, Immucillin-A series, read-out: Inhibition of H. pylori MTAN Ki
[4] = Table 4, Immucillin-A series, read-out: Inhibition of H. pylori MTAN Ki*
[5] = 72 h, Table 4, Immucillin-A series
[6] = Table 3, DADMe-Immucillin-A series, initial inhibition constant, read-out: Inhibition of H. pylori MTAN Ki
[7] = Table 3, equilibrium dissociation constant after slow onset, read-out: Inhibition of H. pylori MTAN Ki*
[8] = Table 3, agar plate, 72 hours, microaerophilic

SMILES | Ki (H. pylori MTAN [1]; [6]) [nM] | Ki (H. pylori MTAN [1]; [7]) [nM] | MIC90 (H. pylori; [8]) [µg/mL] | other results
CCCCSC[C@H]1NC(c2c[nH]c3c(N)ncnc23)[C@H](O)[C@@H]1O (stereo partly drawn) [Compound 43] | – | – | – | Ki (H. pylori MTAN [1]; [3]): 0.51 ± 0.07 nM; Ki (H. pylori MTAN [1]; [4]): 0.05 ± 0.01 nM; MIC90 (H. pylori; [5]): 0.02 µg/mL (≈ 0.0593 µM)
Nc1ncnc2c(CN3CC(O)[C@@H](CSCCCO)C3)c[nH]c12 (stereo partly drawn) [Compound 11, (4S)-1-((4-Amino-5H-pyrrolo[3,2-d]pyrimidin-7-yl)methyl)-4-(((3-hydroxypropyl)thio)methyl)pyrrolidin-3-ol] | 0.89 ± 0.13 | 0.1 ± 0.01 | 0.04 (≈ 0.119 µM) | –
Nc1ncnc2c(CN3C[C@H](CSc4cnccn4)[C@@H](O)C3)c[nH]c12 [Compound 27, (3R,4S)-1-({4-Amino-5H-pyrrolo[3,2-d]pyrimidin-7-yl}methyl)-4-[(pyrazin-2-ylthio)methyl]pyrrolidin-3-ol] | 0.043 ± 0.001 | 0.006 | 0.008 (≈ 0.0224 µM) | –
CCCCCCSC[C@H]1CN(Cc2c[nH]c3c(N)ncnc23)C[C@@H]1O [Compound 18, (3R,4S)-1-({4-Amino-5H-pyrrolo[3,2-d]pyrimidin-7-yl}methyl)-4-[(hexylthio)methyl]pyrrolidin-3-ol] | 0.21 ± 0.03 | 0.005 ± 0.002 | 0.004 to 0.008 (≈ 0.011 to 0.022 µM) | –
Nc1ncnc2c(CN3CC(O)C(CSc4ccc(Cl)cc4)C3)c[nH]c12 (stereo not drawn) [Compound 41] | – | – | – | Ki (H. pylori MTAN [2]; value from Reference 10, read-out: Inhibition of H. pylori MTAN Ki*): 0.57 nM; Ki (H. pylori MTAN [2]; value marked (Reference 10), read-out: Inhibition of H. pylori MTAN Ki): 40 nM
CSCC1CN(Cc2c[nH]c3c(N)ncnc23)CC1O (stereo not drawn) [Compound 31] | – | – | 0.006 to 0.012 (≈ 0.0205 to 0.0409 µM) | Ki (H. pylori MTAN [2]; read-out: Inhibition of H. pylori MTAN Ki*, value from Reference 10): 0.57 nM; Ki (H. pylori MTAN [2]; read-out: Inhibition of H. pylori MTAN Ki, value marked (Reference 10)): 1.2 nM
Nc1ncnc2c(CN3CC(O)[C@@H](CSCCOCCO)C3)c[nH]c12 (stereo partly drawn) [Compound 13, (4S)-1-((4-Amino-5H-pyrrolo[3,2-d]pyrimidin-7-yl)methyl)-4-(((2-(2-hydroxyethoxyl)ethyl)thio)methyl)pyrrolidin-3-ol] | 0.96 ± 0.16 | 0.015 ± 0.004 | 0.035 to 0.07 (≈ 0.0952 to 0.19 µM) | –
CCC[C@H]1CN(Cc2c[nH]c3c(N)ncnc23)C[C@@H]1O [Compound 35] | 0.053 ± 0.007 | – | 0.016 (≈ 0.0581 µM) | –
CCSC[C@H]1CN(Cc2c[nH]c3c(N)ncnc23)C[C@@H]1O [Compound 34] | 0.12 ± 0.03 | 0.52 ± 0.04 | 0.016 (≈ 0.052 µM) | –
Nc1ncnc2c(CN3C[C@H](CCSCCOCCO)[C@@H](O)C3)c[nH]c12 [Compound 17, (3R,4S)-1-({4-Amino-5H-pyrrolo[3,2-d]pyrimidin-7-yl}methyl)-4-(2-{[2-(2-hydroxyethoxy)ethyl]thio}ethyl)pyrrolidin-3-ol] | 0.28 ± 0.03 | 0.05 ± 0.01 | 0.08 (≈ 0.21 µM) | –
CSC[C@H]1NC(c2c[nH]c3c(N)ncnc23)[C@H](O)[C@@H]1O (stereo partly drawn) [Compound 44] | – | – | – | Ki (H. pylori MTAN [1]; [3]): 0.98 ± 0.06 nM; Ki (H. pylori MTAN [1]; [4]): 0.24 ± 0.03 nM; MIC90 (H. pylori; [5]): 0.08 µg/mL (≈ 0.271 µM)
Nc1ncnc2c(CN3CC(O)[C@@H](CSCCO)C3)c[nH]c12 (stereo partly drawn) [Compound 10, (4S)-1-((4-amino-5H-pyrrolo[3,2-d]pyrimidin-7-yl)methyl)-4-(((2-hydroxyethyl)thio)methyl)pyrrolidin-3-ol] | 0.43 ± 0.12 | 0.04 ± 0.01 | – | –
CCCC[C@H]1CN(Cc2c[nH]c3c(N)ncnc23)C[C@@H]1O [Compound 33] | 0.058 ± 0.014 | 0.007 ± 0.002 | 0.01 (≈ 0.0346 µM) | –
Nc1ncnc2c(CN3C[C@H](CSCC4CCCCC4)[C@@H](O)C3)c[nH]c12 [Compound 36] | 0.56 ± 0.27 | 0.045 ± 0.004 | 0.018 to 0.035 (≈ 0.0479 to 0.0932 µM) | –
Nc1ncnc2c(CN3CC(O)[C@@H](CSCCCCO)C3)c[nH]c12 (stereo partly drawn) [Compound 12, (4S)-1-((4-Amino-5H-pyrrolo[3,2-d]pyrimidin-7-yl)methyl)-4-(((4-hydroxybutyl)thio)methyl)pyrrolidin-3-ol] | 0.34 ± 0.07 | 0.11 ± 0.04 | 0.02 (≈ 0.0569 µM) | –
CCCSC[C@H]1NC(c2c[nH]c3c(N)ncnc23)[C@H](O)[C@@H]1O (stereo partly drawn) [Compound 42] | – | – | – | Ki (H. pylori MTAN [1]; [3]): 0.6 ± 0.1 nM; MIC90 (H. pylori; [5]): 0.016 µg/mL (≈ 0.0495 µM)
C#CCCCCSC[C@H]1CN(Cc2c[nH]c3c(N)ncnc23)C[C@@H]1O [Compound 14, (3R,4S)-1-({4-Amino-5H-pyrrolo[3,2-d]pyrimidin-7-yl}methyl)-4-[(hex-5-yn-1-ylthio)methyl]pyrrolidin-3-ol] | 0.5 ± 0.2 | 0.09 ± 0.02 | 0.004 to 0.008 (≈ 0.0111 to 0.0223 µM) | –
Nc1ncnc2c(CN3C[C@H](CSc4nccs4)[C@@H](O)C3)c[nH]c12 [Compound 29] | 0.24 ± 0.07 | 0.016 ± 0.005 | 0.02 (≈ 0.0552 µM) | –
Nc1ncnc2c(CN3C[C@H](CSc4n[nH]c(-c5ccncc5)n4)[C@@H](O)C3)c[nH]c12 [Compound 56, (3R,4S)-1-({4-Amino-5H-pyrrolo[3,2-d]pyrimidin-7-yl}methyl)-4-({[5-(pyridin-4-yl)-1H-1,2,4-triazol-3-yl]thio}methyl)pyrrolidin-3-ol] | 0.28 ± 0.02 | – | > 0.1 | –
Nc1ncnc2c(CN3C[C@H](CSC4CCCC4)[C@@H](O)C3)c[nH]c12 [Compound 32] | 0.78 ± 0.15 | 0.17 ± 0.01 | 0.007 to 0.014 (≈ 0.0201 to 0.0403 µM) | –
Nc1ncnc2c(CN3C[C@H](CSC4CCC4)[C@@H](O)C3)c[nH]c12 [Compound 40] | 0.27 ± 0.04 | 0.04 ± 0.01 | – | –
Nc1ncnc2c(CN3C[C@H](CSC4CCCCCC4)[C@@H](O)C3)c[nH]c12 [Compound 37] | 0.4 ± 0.05 | 0.027 ± 0.002 | 0.035 to 0.07 (≈ 0.0932 to 0.186 µM) | –
Nc1ncnc2c(CN3C[C@H](CSc4ccccn4)[C@@H](O)C3)c[nH]c12 [Compound 24, (3R,4S)-1-({4-Amino-5H-pyrrolo[3,2-d]pyrimidin-7-yl}methyl)-4-[(pyridin-2-ylthio)methyl]pyrrolidin-3-ol] | 0.32 ± 0.7 | 0.041 ± 0.002 | 0.04 (≈ 0.112 µM) | –
Nc1ncnc2c(CN3C[C@H](CCSCCO)[C@@H](O)C3)c[nH]c12 [Compound 16, (3R,4S)-1-({4-Amino-5H-pyrrolo[3,2-d]pyrimidin-7-yl}methyl)-4-{2-[(2-hydroxyethyl)thio]ethyl}pyrrolidin-3-ol] | 0.26 ± 0.03 | 0.05 ± 0.01 | 0.08 (≈ 0.237 µM) | –
Nc1ncnc2c(CN3C[C@H](CSCc4ccccc4)[C@@H](O)C3)c[nH]c12 [Compound 38] | 203 ± 28 | 0.31 ± 0.08 | 0.04 (≈ 0.108 µM) | –
CCCCCCSCC[C@H]1CN(Cc2c[nH]c3c(N)ncnc23)C[C@@H]1O [Compound 19, (3R,4S)-1-({4-Amino-5H-pyrrolo[3,2-d]pyrimidin-7-yl}methyl)-4-[2-(hexylthio)ethyl]pyrrolidin-3-ol] | 0.7 ± 0.1 | 0.14 ± 0.01 | 0.04 (≈ 0.106 µM) | –
